# Measured values as given in a flash point compilation (Sun et al. 2020).
row,Structure (SMILES),flash point [°C]
1,CCCCC(=O)O [Valeric acid],96.00
2,C=CCOC(C)=O [Allyl acetate],21.00
3,CCCC(C)O (stereo unspecified) [2-Pentanol],39.00
4,CCCCCCC(C)O (stereo unspecified) [2-Octanol],88.00

# Remark: another data set of the same source
row,flash point [°C],Structure (SMILES)
1,27.00,C[Si](C)(C)N1CCOCC1 [N-(Trimethylsilyl)morpholine]
2,64.00,CCCCCCC[Si](Cl)(Cl)Cl [n-Heptyltrichlorosilane]
3,20.00,COCC(C)O[Si](C)(C)C (stereo unspecified) [(1-Methoxy-2-propoxy)trimethylsilane]
4,123.90,Clc1ccc([Si](Cl)(Cl)Cl)cc1 [Trichloro(p-chlorophenyl)silane]
5,34.00,"C=C[Si](C)(C)N[Si](C)(C)C=C [1,3-Divinyltetramethyldisilazane]"
6,64.00,CCCCCC[SiH](Cl)Cl [Hexyldichlorosilane]
7,5.00,C=CC[Si](C)(C)Cl [Allyl Dimethylchlorosilane]
8,43.00,CCO[Si](CC)(CC)OCC [Diethyldiethoxysilane]
9,23.00,C=C[Si](OC)(OC)OC [Vinyltrimethoxysilane]
10,45.00,CO[Si](C)(CCCCl)OC [3-Chloropropylmethyldimethoxysilane]
11,3.00,C[Si](Cl)(Cl)Cl [Methyltrichlorosilane]
12,85.00,CCCCCC[Si](C)(Cl)Cl [n-Hexylmethyldichlorosilane]
13,37.00,CCC[Si](Cl)(Cl)Cl [n-Propyltrichlorosilane]
14,-37.00,Cl[SiH2]Cl [Dichlorosilane]
15,110.00,CO[Si](CCCOCC1CO1)(OC)OC (stereo unspecified) [3-Glycidoxypropyltrimethoxysilane]
16,18.00,"C=CC=CC[Si](C)(C)C [(2,4-Pentadienyl)trimethylsilane]"
17,26.00,C[Si](C)(C)S[Si](C)(C)C [Hexamethyldisilthiane]
18,84.00,ClCCC[Si](Cl)(Cl)Cl [3-Chloropropyltrichlorosilane]
19,144.00,C[Si](C)(C)O[Si](C)(C)O[Si](C)(C)O[Si](C)(C)O[Si](C)(C)O[Si](C)(C)O[Si](C)(C)O[Si](C)(C)C [Octadecamethyloctasiloxane]
20,143.20,c1ccc([SiH](c2ccccc2)c2ccccc2)cc1 [Triphenylsilane]
21,193.00,CCCCCCCCCCCCCCCCCC[Si](Cl)(Cl)Cl [n-Octadecyltrichlorosilane]
22,66.00,CCCCCCC[Si](C)(Cl)Cl [n-Heptylmethyldichlorosilane]
23,-60.00,CC[SiH3] [Ethylsilane]
24,30.00,CCCC[Si](C)(Cl)Cl [n-Butylmethyldichlorosilane]
25,50.00,O=C=N[Si](N=C=O)(N=C=O)N=C=O [Tetraisocyanatosilane]
26,4.00,C=C[Si](C)(C)OCC [Vinyldimethylethoxysilane]

# The next lines start with the molecule.
row,Structure (SMILES),flash point [°C]
1,C[Si]1(C)O[Si](C)(C)O[Si](C)(C)O[Si](C)(C)O[Si](C)(C)O[Si](C)(C)O1 [Dodecamethylcyclohexasiloxane],93.00
2,C[Si](C)(C)O[Si](C)(C)O[Si](C)(C)O[Si](C)(C)O[Si](C)(C)O[Si](C)(C)O[Si](C)(C)C [Hexadecamethylheptasiloxane],133.00
3,C=C[Si](Cl)(Cl)Cl [Vinyltrichlorosilane],21.00
4,"C[Si](C)(Cl)O[Si](C)(C)Cl [1,3-Dichlorotetramethyldisiloxane]",15.00
5,CCO[Si](C)(C)CCl [Chloromethyldimethylethoxysilane],26.00
6,C=CC[Si](OC)(OC)OC [Allyltrimethoxysilane],46.00
7,C=C[Si](C=C)(C=C)C=C [Tetravinylsilane],18.00
8,CCN(CC)[Si](C)(C)C [(Diethylamino)trimethylsilane],10.00
9,Cl[Si](Cl)(Cl)C1CCCC1 [Cyclopentyltrichlorosilane],77.00
10,CCC[SiH](CCC)CCC [Tri-n-propylsilane],43.00
11,c1ccc([SiH2]c2ccccc2)cc1 [Diphenylsilane],98.00
12,C[Si]1(C)O[Si](C)(C)O[Si](C)(C)O[Si](C)(C)O1 [Octamethylcyclotetrasiloxane],57.00
13,C=CC[Si](Cl)(Cl)Cl [Allyltrichlorosilane],31.00
14,[SiH3][SiH2][SiH3] [Trisilane],0.00
15,CO[Si](OC)(OC)c1ccccc1 [Phenyltrimethoxysilane],85.00
16,CC[Si](Cl)(Cl)CC [Dichlorodiethylsilane],24.00
17,CO[Si](CC(C)C)(OC)OC [Isobutyltrimethoxysilane],42.00
18,C[SiH](C)C(C)(C)C [t-Butyld imethyl silane],-22.00
19,C=CO[Si](C)(C)C [Trimethyl(vinyloxy)silane],-10.00
20,CCCCCCCC[SiH3] [n-Octylsilane],36.00
21,CC[Si](C)(Cl)CC [Diethylmethylchlorosilane],15.00
22,CC(=O)O[Si](C)(C)OC(C)=O [Dimethyldiacetoxysilane],37.00
23,"CN(C)[SiH](C)C [(N,N-Dimethylamino)dimethylsilane]",-13.00
24,C[Si](C)(C)OC1=CCCC1 [(Cyclopentenyloxy)trimethylsilane],38.00
25,CC(=O)O[Si](C)(OC(C)=O)OC(C)=O [Methyltriacetoxysilane],85.00
26,CCO[SiH2]CCCN [Gamma-aminopropylethoxysilane],96.11

# Remark: another data set of the same source
row,flash point [°C],Structure (SMILES)
1,-16.0,"CC(C)=C(C)C [2-Butene, 2,3-dimethyl-]"
2,56.0,CCCCCCC(C)=O [2-Octanone]
3,97.5,"CCCCCCCc1ccccc1 [Benzene, heptyl-]"
4,-11.0,CCCC=O [Butyraldehyde]
5,41,"CCCCCCCC(C)C [Nonane, 2-methyl-]"
6,132.0,C=CCCCCCCCCCCCCCC [1-HEXADECENE]
7,-0.0,"COCC(C)OC (stereo unspecified) [1,2-Dimethoxypropane]"
8,3.0,"CCC(C)CC(C)C (stereo unspecified) [Hexane, 2,4-dimethyl-]"
9,13.0,"CCC(=O)C(C)C [3-Pentanone, 2-methyl-]"
10,164,CCCCCCCCCCCC(=O)O [Lauric acid]
11,84,CCCCCCCCO [1-OCTANOL]
12,-29.9,CCC=O [Propionaldehyde]
13,13.0,"CCOC(C)OCC [Ethane, 1,1-diethoxy-]"
14,36.0,"Cc1cccnc1 [Pyridine, 3-methyl-]"
15,-34.9,CC(C)Cl [2-Chloropropane]
16,33,"Cc1cccc(C)n1 [Pyridine, 2,6-dimethyl-]"
17,6.0,"CCCC(C)CCC [Heptane, 4-methyl-]"
18,65.0,CCCCC(=O)CCCC [5-Nonanone]
19,27,CCCCCC=O [1-HEXANAL]
20,35.0,"CC(=O)CCC(C)C [2-Hexanone, 5-methyl-]"
21,74.0,"Cc1ccc(C)c(C)c1C [1,2,3,4-Tetramethylbenzene]"

# The next lines start with the molecule.
row,Structure (SMILES),flash point [°C]
1,CCCCC(=O)O [Valeric acid],86.0
2,"NCCCN [1,3-Diaminopropane]",49.0
3,"CCCCCC(C)CC (stereo unspecified) [Octane, 3-methyl-]",25.5
4,CCCCC(C)=O [2-Hexanone],23.0
5,CCCC#N [Butanenitrile],18.0
6,"CC(Cl)Cl [Ethane, 1,1-dichloro-]",-10.0
7,"Cc1cccc(C)c1C [1,2,3-TRIMETHYLBENZENE]",44.0
8,C=CCCCCCCCCCCCCCCCC [1-Octadecene],148.0
9,NC1CCCCC1 [Cyclohexanamine],26.5
10,CCCC(=O)O [Butyric acid],72.0
11,CCCCC(=O)CC [3-Heptanone],37.0
12,C=CCOC(C)=O [Allyl acetate],10
13,CCCC(C)O (stereo unspecified) [2-Pentanol],34.0
14,Cc1cc(C)cc(C)c1 [Mesitylene],44.5
15,"CCC(C)C(C)=O (stereo unspecified) [2-Pentanone, 3-methyl-]",12.0
16,CCCCCCC(C)O (stereo unspecified) [2-Octanol],71.0
17,C=COCCCC [n-Butylvinylether],-1

row,Structure (SMILES),flash point [°C]
1,"CCCCOC(=O)CCC [Butanoic acid, butyl ester]",50.0
2,"Cc1cccc(O)c1C [2,3-Dimethylphenol]",95.0
3,c1ccc(Oc2ccccc2)cc1 [Diphenyl ether],115.0
4,"CCC(C)C(C)CC (stereo unspecified) [Hexane, 3,4-dimethyl-]",7.5
5,CCCCCCCCCCC=O [Undecanal],96.0
6,CCCCCCC(=O)CC [3-Nonanone],66.0
7,CCCCCCC(C)=O [2-OCTANONE],51.0
8,C=CCCCCCCC [1-NONENE],22
9,"CCC(C)CC(C)(C)CC (stereo unspecified) [3,3,5-Trimethylheptane]",31
10,CCCO [1-PROPANOL],18
11,CCC#N [Propanenitrile],6.0
12,CCCCCCCCOC(C)=O [Acetic acid octyl ester],83.0
13,"Cc1cccc(C)c1C [1,2,3-Trimethylbenzene]",51.0
14,COC(C)=O [METHYL ACETATE],-10.0
15,CCCCCCCCO [1-Octanol],86.6
16,"CCC1CCCCC1 [Cyclohexane, ethyl-]",18.0
17,CC(=O)C(C)(C)C [Pinacolone],9.0
